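Compound exposure: 48 hours, 5 concentrations, 96-well plates. GI50 = concentration required for 50% inhibition of growth. TGI: total growth inhibition.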
Assays:
Experiment in all cases: growth of human tumour cells (NCI), 48 h
786-0 renal = system: 786-0 renal
A498 renal = system: A498 renal
A549 NSCLC = system: A549 NSCLC
ACHN renal = system: ACHN renal
BT-549 breast = system: BT-549 breast
CAKI-1 renal = system: CAKI-1 renal
CCRF-CEM leukemia = system: CCRF-CEM leukemia
COLO 205 colon = system: COLO 205 colon
DU-145 prostate = system: DU-145 prostate
EKVX NSCLC = system: EKVX NSCLC
HCC-2998 colon = system: HCC-2998 colon
HCT-116 colon = system: HCT-116 colon
HCT-15 colon = system: HCT-15 colon
HOP-62 NSCLC = system: HOP-62 NSCLC
HOP-92 NSCLC = system: HOP-92 NSCLC
HS 578T breast = system: HS 578T breast
HT29 colon = system: HT29 colon
IGROV1 ovarian = system: IGROV1 ovarian
K-562 leukemia = system: K-562 leukemia
KM12 colon = system: KM12 colon
LOX IMVI melanoma = system: LOX IMVI melanoma
M14 melanoma = system: M14 melanoma
MALME-3M melanoma = system: MALME-3M melanoma
MCF7 breast = system: MCF7 breast
MDA-MB-231 breast = system: MDA-MB-231 breast
MDA-MB-435 = system: MDA-MB-435
MOLT-4 leukemia = system: MOLT-4 leukemia
NCI-H226 lung = system: NCI-H226 lung
NCI-H23 lung = system: NCI-H23 lung
NCI-H460 lung = system: NCI-H460 lung
NCI-H522 lung = system: NCI-H522 lung
NCI/ADR-RES ovarian = system: NCI/ADR-RES ovarian
OVCAR-3 ovarian = system: OVCAR-3 ovarian
OVCAR-4 ovarian = system: OVCAR-4 ovarian
OVCAR-5 ovarian = system: OVCAR-5 ovarian
OVCAR-8 ovarian = system: OVCAR-8 ovarian
PC-3 prostate = system: PC-3 prostate
RPMI-8226 leukemia = system: RPMI-8226 leukemia
RXF 393 renal = system: RXF 393 renal
SF-268 CNS = system: SF-268 CNS
SF-295 CNS = system: SF-295 CNS
SF-539 CNS = system: SF-539 CNS
SK-MEL-2 melanoma = system: SK-MEL-2 melanoma
SK-MEL-28 melanoma = system: SK-MEL-28 melanoma
SK-MEL-5 melanoma = system: SK-MEL-5 melanoma
SK-OV-3 ovarian = system: SK-OV-3 ovarian
SN12C renal = system: SN12C renal
SNB-19 CNS = system: SNB-19 CNS
SNB-75 CNS = system: SNB-75 CNS
SW-620 colon = system: SW-620 colon
T-47D breast = system: T-47D breast
TK-10 renal = system: TK-10 renal
U251 CNS = system: U251 CNS
UACC-257 melanoma = system: UACC-257 melanoma
UACC-62 melanoma = system: UACC-62 melanoma
UO-31 renal = system: UO-31 renal

COc1cc(/C=C2\CC3C4CCC5=CC(=O)CC[C@]5(C)C4CC[C@]3(C)C2=O)ccc1OCCN1CCCC1 (stereo partly specified)
GI50 (786-0 renal): 1.22 µM
TGI (786-0 renal): 2.91 µM
GI50 (A498 renal): 5.05 µM
TGI (A498 renal): 10.6 µM
GI50 (A549 NSCLC): 4.45 µM
TGI (A549 NSCLC): > 100 µM
GI50 (ACHN renal): 2.94 µM
TGI (ACHN renal): 9.16 µM
GI50 (BT-549 breast): 8.44 µM
TGI (BT-549 breast): 23.3 µM
GI50 (CAKI-1 renal): 2.89 µM
TGI (CAKI-1 renal): 10.5 µM
GI50 (CCRF-CEM leukemia): 1.12 µM
TGI (CCRF-CEM leukemia): 4.35 µM
GI50 (COLO 205 colon): 2.04 µM
TGI (COLO 205 colon): 4.91 µM
GI50 (DU-145 prostate): 3.76 µM
TGI (DU-145 prostate): 16.8 µM
GI50 (EKVX NSCLC): 3.98 µM
TGI (EKVX NSCLC): 17.3 µM
GI50 (HCC-2998 colon): 1.85 µM
TGI (HCC-2998 colon): 3.89 µM
GI50 (HCT-116 colon): 1.41 µM
TGI (HCT-116 colon): 3.79 µM
GI50 (HCT-15 colon): 2.76 µM
TGI (HCT-15 colon): 10.7 µM
GI50 (HOP-62 NSCLC): 2.33 µM
TGI (HOP-62 NSCLC): 6.11 µM
GI50 (HOP-92 NSCLC): 1.41 µM
TGI (HOP-92 NSCLC): 3.87 µM
GI50 (HS 578T breast): 3.22 µM
TGI (HS 578T breast): 8.87 µM
GI50 (HT29 colon): 2.5 µM
TGI (HT29 colon): > 28.5 µM
GI50 (IGROV1 ovarian): 2.33 µM
TGI (IGROV1 ovarian): 5.73 µM
GI50 (K-562 leukemia): 0.489 µM
TGI (K-562 leukemia): 1.53 µM
GI50 (KM12 colon): 1.92 µM
TGI (KM12 colon): 4.77 µM
GI50 (LOX IMVI melanoma): 2.01 µM
TGI (LOX IMVI melanoma): 3.97 µM
GI50 (M14 melanoma): 1.67 µM
TGI (M14 melanoma): 3.39 µM
GI50 (MALME-3M melanoma): 0.645 µM
TGI (MALME-3M melanoma): 1.93 µM
GI50 (MCF7 breast): 4.07 µM
TGI (MCF7 breast): > 45.3 µM
GI50 (MDA-MB-231 breast): 2.01 µM
TGI (MDA-MB-231 breast): 5.1 µM
GI50 (MDA-MB-435): 2.15 µM
TGI (MDA-MB-435): 4.86 µM
GI50 (MOLT-4 leukemia): 0.689 µM
TGI (MOLT-4 leukemia): 1.84 µM
GI50 (NCI-H226 lung): 1.81 µM
TGI (NCI-H226 lung): 7.08 µM
GI50 (NCI-H23 lung): 3.31 µM
TGI (NCI-H23 lung): 13.4 µM
GI50 (NCI-H460 lung): 3.57 µM
TGI (NCI-H460 lung): > 37.5 µM
GI50 (NCI-H522 lung): 2.33 µM
TGI (NCI-H522 lung): 5.45 µM
GI50 (NCI/ADR-RES ovarian): 2.45 µM
TGI (NCI/ADR-RES ovarian): 6.51 µM
GI50 (OVCAR-3 ovarian): 2.37 µM
TGI (OVCAR-3 ovarian): 6.01 µM
GI50 (OVCAR-4 ovarian): 3.94 µM
TGI (OVCAR-4 ovarian): 15.1 µM
GI50 (OVCAR-5 ovarian): 2.64 µM
TGI (OVCAR-5 ovarian): 8.26 µM
GI50 (OVCAR-8 ovarian): 3.4 µM
TGI (OVCAR-8 ovarian): 13.5 µM
GI50 (PC-3 prostate): 2.35 µM
TGI (PC-3 prostate): 8.31 µM
GI50 (RPMI-8226 leukemia): 0.202 µM
TGI (RPMI-8226 leukemia): 0.889 µM
GI50 (RXF 393 renal): 2.24 µM
TGI (RXF 393 renal): 5.41 µM
GI50 (SF-268 CNS): 3.41 µM
TGI (SF-268 CNS): 19.4 µM
GI50 (SF-295 CNS): 2.62 µM
TGI (SF-295 CNS): 7.58 µM
GI50 (SF-539 CNS): 1.78 µM
TGI (SF-539 CNS): 3.67 µM
GI50 (SK-MEL-2 melanoma): 4.21 µM
TGI (SK-MEL-2 melanoma): 14.8 µM
GI50 (SK-MEL-28 melanoma): 2.7 µM
TGI (SK-MEL-28 melanoma): 8.11 µM
GI50 (SK-MEL-5 melanoma): 1.8 µM
TGI (SK-MEL-5 melanoma): 3.5 µM
GI50 (SK-OV-3 ovarian): 4.56 µM
TGI (SK-OV-3 ovarian): 16.8 µM
GI50 (SN12C renal): 3.28 µM
TGI (SN12C renal): 9.18 µM
GI50 (SNB-19 CNS): 4.16 µM
TGI (SNB-19 CNS): 18.8 µM
GI50 (SNB-75 CNS): 3.47 µM
TGI (SNB-75 CNS): 11.1 µM
GI50 (SW-620 colon): 3.09 µM
TGI (SW-620 colon): 11.5 µM
GI50 (T-47D breast): 3.29 µM
TGI (T-47D breast): 9.21 µM
GI50 (TK-10 renal): 1.51 µM
TGI (TK-10 renal): 3.92 µM
GI50 (U251 CNS): 2.86 µM
TGI (U251 CNS): 10.1 µM
GI50 (UACC-257 melanoma): 2.5 µM
TGI (UACC-257 melanoma): 6.15 µM
GI50 (UACC-62 melanoma): 2.06 µM
TGI (UACC-62 melanoma): 5.02 µM
GI50 (UO-31 renal): 1.68 µM
TGI (UO-31 renal): 3.38 µM

O=C1NC(=Nc2ccc(O)cc2)S/C1=C\c1cccs1
GI50 (COLO 205 colon): > 100 µM
TGI (COLO 205 colon): > 100 µM
GI50 (EKVX NSCLC): > 100 µM
TGI (EKVX NSCLC): > 100 µM
GI50 (HOP-92 NSCLC): > 100 µM
TGI (HOP-92 NSCLC): > 100 µM
GI50 (HT29 colon): > 100 µM
TGI (HT29 colon): > 100 µM
GI50 (MALME-3M melanoma): > 100 µM
TGI (MALME-3M melanoma): > 100 µM
GI50 (MDA-MB-231 breast): > 100 µM
TGI (MDA-MB-231 breast): > 100 µM
GI50 (NCI-H23 lung): > 100 µM
TGI (NCI-H23 lung): > 100 µM
GI50 (NCI/ADR-RES ovarian): > 100 µM
TGI (NCI/ADR-RES ovarian): > 100 µM
GI50 (OVCAR-4 ovarian): > 100 µM
TGI (OVCAR-4 ovarian): > 100 µM
GI50 (SK-MEL-2 melanoma): > 100 µM
TGI (SK-MEL-2 melanoma): > 100 µM
GI50 (SK-MEL-28 melanoma): > 100 µM
TGI (SK-MEL-28 melanoma): > 100 µM
GI50 (SK-OV-3 ovarian): > 100 µM
TGI (SK-OV-3 ovarian): > 100 µM
GI50 (TK-10 renal): > 100 µM
TGI (TK-10 renal): > 100 µM
GI50 (UACC-257 melanoma): > 100 µM
TGI (UACC-257 melanoma): > 100 µM

NC(N)=N/N=C/c1c(-c2ccc(Cl)c([N+](=O)[O-])c2)nc2sccn12
TGI (786-0 renal): 3.15 µM
TGI (A498 renal): 3.14 µM
TGI (ACHN renal): 3.15 µM
TGI (COLO 205 colon): 2.61 µM
TGI (DU-145 prostate): 3.17 µM
TGI (HCC-2998 colon): 2.94 µM
TGI (HCT-116 colon): 2.25 µM
TGI (HCT-15 colon): 3.5 µM
TGI (HT29 colon): 2.8 µM
TGI (MDA-MB-231 breast): 3.24 µM
TGI (NCI-H226 lung): 6.23 µM
TGI (NCI-H460 lung): 3.3 µM
TGI (NCI/ADR-RES ovarian): > 100 µM
TGI (OVCAR-4 ovarian): 4.49 µM
TGI (OVCAR-5 ovarian): 3.12 µM
TGI (PC-3 prostate): 3.11 µM
TGI (SF-295 CNS): 3.47 µM
TGI (SF-539 CNS): 3.27 µM
TGI (SK-MEL-28 melanoma): 27.8 µM
TGI (SK-MEL-5 melanoma): 3.26 µM
TGI (SN12C renal): 3.29 µM
TGI (TK-10 renal): 3.16 µM
TGI (UACC-62 melanoma): 3.27 µM
TGI (UO-31 renal): 3.05 µM

Cc1cn2c(/C=N/N=C(N)N)c(-c3ccc([N+](=O)[O-])cc3)nc2s1
TGI (A498 renal): 3.01 µM
TGI (ACHN renal): 2.82 µM
TGI (CAKI-1 renal): 6.57 µM
TGI (COLO 205 colon): 1.97 µM
TGI (HCT-15 colon): 2.77 µM
TGI (HT29 colon): 2.67 µM
TGI (KM12 colon): 1.72 µM
TGI (NCI/ADR-RES ovarian): > 100 µM
TGI (OVCAR-4 ovarian): 0.316 µM
TGI (OVCAR-5 ovarian): 2.14 µM
TGI (PC-3 prostate): 2.73 µM
TGI (SF-539 CNS): 3.05 µM
TGI (SK-MEL-28 melanoma): 3.05 µM
TGI (SK-OV-3 ovarian): 3.14 µM
TGI (SNB-75 CNS): 1.87 µM
TGI (SW-620 colon): 0.331 µM
TGI (UO-31 renal): 3.37 µM
